Assay results as given in PMC4153677, “Probing the Activity Modification Space of the Cysteine Peptidase Cathepsin K with Novel Allosteric Modifiers” (PLoS ONE, 2014).
Like-named read-outs stand apart in the source and are kept apart here.

Columns and labels:
[1] = target: T1, Recombinant human cathepsin K (Homo sapiens, UniProt P43235); test: Azocasein degradation assays; format: biochemical; settings: for azocasein: fraction of residual enzyme activity: value of 1 equals the activity of unmodified enzyme, activity modification matrix
T1 construct: made in house
T1 sequence (P43235 115-329): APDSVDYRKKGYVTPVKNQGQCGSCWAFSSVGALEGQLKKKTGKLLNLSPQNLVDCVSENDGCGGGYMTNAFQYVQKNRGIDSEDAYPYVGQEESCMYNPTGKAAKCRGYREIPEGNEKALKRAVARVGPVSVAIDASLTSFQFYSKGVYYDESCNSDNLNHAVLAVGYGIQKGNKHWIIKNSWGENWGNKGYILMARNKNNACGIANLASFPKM
Description: Figure 4 Effect of modifiers on the degradation of macromolecular substrates. (A) Effect of increasing concentrations of compounds 1 and 2 on the degradation of calf skin collagen. Molecular mass standards are given in kDa and positions of α, β and γ chains of intact collagen are marked by arrows. (B) Effect of modifiers on azocasein degradation. (C) Effect of glycosaminoglycans and clusterin on azocasein degradation. Two different concentrations of each glycosaminoglycan were used in the experiments (10 µg/ml and 200 µg/ml). Error bars in panels B and C represent the SEM of three experiments. All experiments were performed in 100 mM sodium acetate buffer pH 5.50 containing 1 mM EDTA and 5 mM DTT, as described in detail in the Materials and Methods section. Abbreviations: CPD – compound, CS – chondroitin sulfate, DS – dermatan sulfate, HP – heparin.
Azocasein (Sigma-Aldrich, USA) was dissolved in 100 mM sodium acetate buffer pH 5.50 containing 1 mM EDTA and 5 mM DTT at a concentration of 3 mg/ml. Samples were incubated with 0.1 µM cathepsin K for 30 min at 37°C in the presence of each compound. […] Reactions were stopped by addition of trichloroacetic acid (final concentration 5% v/v), centrifuged, clear supernatants mixed with 0.5 M NaOH and the concentrations of solubilized peptides determined by measuring the absorbance at 440 nm. All experiments were performed in triplicates and appropriate blanks were run to take into account the absorption of azocasein and compounds alone. IC 50 values were determined as described previously.

[2] = target: T1, Recombinant human cathepsin K; set-up: key: qualitative values of 1 and 0 were used to signify inhibition and lack thereof, respectively; qualitative values of 1 and 0 were used to signify inhibition and lack thereof, respectively; a value of -1 was used to describe the concentration-dependent roles of glycosaminoglycans; settings: activity modification matrix; previously known modifiers, data from previous work; cited from earlier work
[3] = target: T1, Recombinant human cathepsin K; settings: cited from earlier work; for stability: ln(sf), sf = ratio of half-lives in the presence and absence of modifier: 37 °C and pH 7.4, data from previous work
[4] = target: T1, Recombinant human cathepsin K; settings: cited from earlier work; for Z-FRAMC: geometric mean of residual activities (vA): at 0.1×Km and 10×Km substrate, modifier 10×KA, previously known modifiers, data from previous work

Row | azocasein: fraction of residual enzyme activity [1] | Effect on azocasein degradation ([1]; lowest concentration, 10 µg/ml) | Effect on azocasein degradation ([1]; glycosaminoglycans at 10 µg/ml and 200 µg/ml, clusterin) | Substance | collagen: qualitative value [2] | stability: ln(sf), sf = ratio of half-lives in the presence and absence of modifier [3] | Effect on stability of cathepsin K at physiological plasma pH 7.4 [3] | Z-FRAMC: geometric mean of residual activities (vA) [4] | Effect on the hydrolysis of Z-FR↓AMC [4] | Effect on the hydrolysis of Z-FR↓AMC ([4]; listed as CLU)
1 | 0.31 |  |  | heparin | -1 | 1.69 | increase the stability | 1.55 |  | 
2 | 0.32 |  |  | dermatan sulfate [reference compound] | -1 | -0.15 |  | 3.18 |  | 
3 | 0.90 | ineffective |  | chondroitin sulfate [reference compound] | -1 | -0.24 |  | 2.40 |  | 

Row | Substance | azocasein: fraction of residual enzyme activity [1] | Effect on azocasein degradation ([1]; lowest concentration, 10 µg/ml) | Effect on azocasein degradation ([1]; glycosaminoglycans at 10 µg/ml and 200 µg/ml, clusterin) | collagen: qualitative value [2] | stability: ln(sf), sf = ratio of half-lives in the presence and absence of modifier [3] | Effect on stability of cathepsin K at physiological plasma pH 7.4 [3] | Z-FRAMC: geometric mean of residual activities (vA) [4] | Effect on the hydrolysis of Z-FR↓AMC [4] | Effect on the hydrolysis of Z-FR↓AMC ([4]; listed as CLU)
4 | clusterin: extracellular chaperone, stabilizer and liberator of cathepsin K | 0.95 |  | marginal inhibitory effect | 0 | 0.79 | increase the stability | 1.00 | no effect on enzymatic activity | no modification
